Laboratory results: US12310963B2, “Pyrazole derivatives and use thereof” (Tarapeutics Science Inc., priority 2019, dated 2025)

Legend:
BaF3 = assay: Growth of parental BaF3 cells, Cell Titer-Glo, 72 h; type: cell-based; settings: Mus musculus
Description: (§1) In this example, mouse primary B cell BaF3 (purchased from ATCC, U.S.A.) was used. In addition, in this example, mouse BaF3-tel-PDGFRα (stably expressing PDGFRα kinase), mouse BaF3-tel-PDGFRβ (stably expressing PDGFRβ kinase), BaF3-P210 (stably expressing ABL kinase), BaF3-P210-T315I (stably expressing ABL-T315I kinase), BaF3-FL-BRAF-V600E (stably expressing BRAF-V600E kinase), BaF3-TEL-cKIT (stably expressing cKIT kinase), BaF3-TEL-VEGFR2 (stably expressing VEGFR2 kinase), BaF3-TEL-FGFR2 (stably expressing FGFR2 kinase) were also used. The above-mentioned cell trains were all constructed in our laboratory by the method as follows. The sequences of human BCR-ABL (P210 or P210/T315I mutated), full-length BRAF-V600E, cKIT, VEGFR2, FGFR2, PDGFRα, PDGFRβ kinase region were amplified respectively via PCR, and inserted respectively into a MSCV-Puro vector (purchased from Clontech) having a N-terminal TEL fragment and/or NPM fragment and/or TPR fragment, and stably transferred into mouse BaF3 cells by the retroviral method, and the growth factor IL-3 was removed. Eventually, cell lines which are transferred into proteins depending on PDGFRα, PDGFRβ were obtained.
In this example, solutions of the test compound at different concentrations (0.000508 μM, 0.00152 μM, 0.00457 μM, 0.0137 μM, 0.0411 μM, 0.123 μM, 0.370 μM, 1.11 μM, 3.33 μM, 10 μM) were added to the above cells. The cells were incubated for 72 hours.

[1] = tested on: pulmonary arterial hypertension (PAH); assay: Rat model of pulmonary arterial hypertension (PAH), monocrotaline-induced; type: in vivo; settings: for mPAP, difference as compared with the vehicle group: p<0.001
Protocol: SCXK (SU) 2017-0001. These rats were fed with conventional pellet feeds (Jiangsu Xietong Bio. Co., Ltd.), and were raised in a clean animal room with 12h/12h light/dark cycle. The rats were fed with foods and drinking water on an ad libitum basis. The temperature was maintained at 20-26° C., and the relative humidity was 40-70%. 120 SD rats were divided into 24 cages with 5 rats per group. […] The animals were treated in strict accordance with animal ethics regulations throughout the experiment. According to the method described in “Pharmaceutical experimental animal models: Fabrication and application” and the Standard Operating Procedure for PAH Model Construction of Model Animal Center, rats were intraperitoneally injected with a solution of 1% monocrotaline (MCT, purchased from Sigma, U.S.A.) once at a dose of 35 mg/kg. On Day 7 after the first injection of MCT, MCT was injected again at a dose of 20 mg/kg. The rats in the normal control group were intraperitoneally injected with an equivalent amount of water as a blank solvent. The specific steps were as follows: After the rats in each of the cages were fasted for 8 hours, each of the rats was weighed and recorded for the basic body weight after fasting; based on the measured basic body weight for each of the rats, the amount of MCT required to be injected for each of the rats was calculated according to the modeling dose of 35 mg/kg; based on the amount of MCT required to be injected for each of the rats, the dose for injection of a 1% MCT solution was calculated; the rats were fixed in a holder and intraperitoneally injected with the 1% MCT solution at the calculated dose; the rats were returned to the cages for routine feeding after the injection. […] The blood gas analyzer was operated following the standard operation procedure. […] Each of the rats was administered by gavage once a day starting from the day of regrouping at Week 4. The rats in the negative control group were daily administered by gavage with an equal volume of methylcellulose as vehicle. The rats in each of the groups were administered by gavage for consecutive 4 weeks (i.e., 28 days). […] The rats were weighed after fasting overnight twice a week. The administration dosage was calculated based on the weighing results. […] After the rats were under anesthesia, the pulmonary arterial pressure and the right ventricular systolic pressure of rats were measured. […] The steps were as follows. A No. 3.5 umbilical vein catheter was connected to a system pressure transducer. A formulated solution of […] sodium (purchased from Sangon) was filled into the transducer and the catheter, and bubbles were discharged. The anesthetized rat was placed on a surgical anatomical plate that is adjustable in its temperature. The temperature of the plate was adjusted to be maintained at about 37° C. The rat was fixed in supine position. The neck skin was cut with scissors to the edge of the clavicle, followed by blunt dissection of subcutaneous tissues and muscles, exposing the right external jugular vein. The adipose tissue on the surface was removed with ophthalmic surgical scissors. The external jugular vein was ligated at the […] surgical thread, and a loose knot was made at the proximal end for reserve. The external jugular vein was gently lifted with ophthalmic tweezers and cut with ophthalmic scissors to make a “V” opening. The catheter was quickly inserted, and the loose knot at the proximal end was tightened slightly to prevent bleeding. […] The catheter was further inserted slowly forward, and entered into the pulmonary artery at about 5 cm. […] The blood was transferred into an anticoagulation tube, and loaded in a blood gas analyzer to determine the indexes of partial pressure of oxygen (pO2), partial pressure of carbon dioxide (pCO2) and blood oxygen saturation (SaO2) in the blood.

[2] = tested on: BaF3-TEL-cKIT (stably expressing cKIT kinase); assay: Growth of BaF3-TEL-cKIT cells, Cell Titer-Glo, 72 h; type: cell-based, mouse
Description: as §1
In this example, solutions of the test compound at different concentrations (0.000508 μM, 0.00152 μM, 0.00457 μM, 0.0137 μM, 0.0411 μM, 0.123 μM, 0.370 μM, 1.11 μM, 3.33 μM, 10 μM) were added to the above cells. […]

[3] = tested on: human chronic eosinophilic leukemia cells EOL-1 (expressing PDGFRα); assay: Mouse tumor model of human chronic eosinophilic leukemia cells EOL-1; type: in vivo
Protocol: • 1) Bal b/c female mice, 4-6 weeks old, were purchased from Shanghai SLAC Laboratory Animal Co., Ltd., and were raised in an SPF laboratory; the drinking water and the bedding were both sterilized by autoclaving; and all the operations involving the mice were performed under aseptic conditions; • 2) On Day 0, 1×10^7 human chronic eosinophilic leukemia cells EOL-1 (expressing PDGFRα) (purchased from ATCC) were injected subcutaneously into the left flank of each of the mice; • 3) On Day 15, the mice were randomly divided into four groups with five mice per group, and were administered respectively for 14 days. […] The tumor volume was calculated as length×width×width/2 mm^3.

[4] = 45 mg/kg by gavage, 28 days, P<0.001
[5] = high-dose group (45 mg/kg), P<0.001
[6] = medium-dose group (30 mg/kg), P<0.01

Cc1ccc(NC(=O)c2cccc(C(F)(F)F)n2)cc1-n1cc(-c2cncc(N3CCN(C)CC3)c2)cn1 [Compound 1, N-(4-methyl-3-(4-(5-(4-methylpiperazin-1-yl)pyridin-3-yl)-1H-pyrazol-1-yl)phenyl)-6-(trifluoromethyl)picolinamide]
GI50 (BaF3): 4.08 µM | mPAP, difference as compared with the vehicle group ([1]; 15 mg/kg by gavage, 28 days): extremely significantly different | RVSP, difference as compared with the groups of imatinib and bosentan ([1]; 30 mg/kg by gavage, 28 days): no significant difference | mPAP, difference as compared with the groups of bosentan and imatinib ([1]; 30 mg/kg by gavage, 28 days): no significant difference | RVSP, difference as compared with the vehicle group ([1]; 30 mg/kg by gavage, 28 days, P<0.001): extremely significantly different | mPAP, difference as compared with the vehicle group ([1]; 30 mg/kg by gavage, 28 days): extremely significantly different | RVI, difference as compared with the groups of imatinib and bosentan ([1]; 45 mg/kg by gavage, 28 days): no significant difference | RVSP, difference as compared with the groups of imatinib and bosentan ([1]; 45 mg/kg by gavage, 28 days): no significant difference | mPAP, difference as compared with the groups of bosentan and imatinib ([1]; 45 mg/kg by gavage, 28 days): no significant difference | RVI, difference as compared with the vehicle group [1, 4]: extremely significantly different | RVSP, difference as compared with the vehicle group [1, 4]: extremely significantly different | mPAP, difference as compared with the vehicle group ([1]; 45 mg/kg by gavage, 28 days): extremely significantly different | partial pressure of carbon dioxide (pCO2), difference as compared with the vehicle group [1, 5]: extremely significantly different | partial pressure of oxygen (pO2), difference as compared with the vehicle group [1, 5]: extremely significantly different | blood oxygen saturation (SaO2), difference as compared with the vehicle group ([1]; high-dose group (45 mg/kg), p<0.05): significantly different | RVI decrease as compared with the negative control group ([1]; high-dose group, 45 mg/kg by gavage, 28 days): 29.6% | RVI decrease as compared with the negative control group ([1]; low-dose group, 15 mg/kg by gavage, 28 days): 5.5% | partial pressure of carbon dioxide (pCO2), difference as compared with the vehicle group [1, 6]: extremely significantly different | partial pressure of oxygen (pO2), difference as compared with the vehicle group [1, 6]: extremely significantly different | RVI decrease as compared with the negative control group ([1]; medium-dose group, 30 mg/kg by gavage, 28 days): 9.4% | GI50 ([2]; BaF3-TEL-cKIT cells, 72 hours): 5.34 µM | inhibitory effect against cKIT (in words) ([2]; summary of Table 2): no inhibitory effect, or a relatively weak inhibitory effect | tumor growth inhibitory rate (TGI) ([3]; 5 mg/kg, 14 days after administration, by tumor weight vs control group, FIG. 1c): 96% | effect on tumor size (in words) ([3]; 5 mg/kg, FIG. 1b): excellent effect in inhibiting the tumor | effect on the body weight of the mouse (in words) ([3]; EOL-1 mouse model, 14 days administration, FIG. 1a): little effect on the body weight
